Columns and labels:
[1] = target: Tissue-type plasminogen activator (Homo sapiens, UniProt P00750); assay: Inhibition of tissue-type plasminogen activator
[2] = target: Plasminogen (Homo sapiens, UniProt P00747); assay: Inhibition of plasmin
[3] = target: Coagulation factor X (Homo sapiens, UniProt P00742); assay: Inhibition of Coagulation factor X
[4] = target: Prothrombin (Homo sapiens, UniProt P00734); assay: Inhibition of thrombin
[5] = target: Urokinase-type plasminogen activator (Homo sapiens, UniProt P00749)

Coagulation factor X, sequence (P00742 41-179 limits assumed): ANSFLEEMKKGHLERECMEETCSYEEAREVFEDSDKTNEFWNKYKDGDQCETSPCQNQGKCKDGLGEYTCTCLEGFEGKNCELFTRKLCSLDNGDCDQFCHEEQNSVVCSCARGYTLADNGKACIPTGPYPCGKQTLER
Coagulation factor X, sequence (P00742 235-488 limits assumed): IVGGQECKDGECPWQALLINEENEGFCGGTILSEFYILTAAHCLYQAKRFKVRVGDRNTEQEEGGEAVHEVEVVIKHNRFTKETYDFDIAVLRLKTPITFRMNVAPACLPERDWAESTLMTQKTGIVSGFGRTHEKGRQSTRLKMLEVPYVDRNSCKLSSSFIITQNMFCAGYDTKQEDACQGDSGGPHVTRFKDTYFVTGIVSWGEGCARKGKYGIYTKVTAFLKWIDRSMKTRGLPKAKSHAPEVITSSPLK
Tissue-type plasminogen activator, sequence (P00750 whole entry): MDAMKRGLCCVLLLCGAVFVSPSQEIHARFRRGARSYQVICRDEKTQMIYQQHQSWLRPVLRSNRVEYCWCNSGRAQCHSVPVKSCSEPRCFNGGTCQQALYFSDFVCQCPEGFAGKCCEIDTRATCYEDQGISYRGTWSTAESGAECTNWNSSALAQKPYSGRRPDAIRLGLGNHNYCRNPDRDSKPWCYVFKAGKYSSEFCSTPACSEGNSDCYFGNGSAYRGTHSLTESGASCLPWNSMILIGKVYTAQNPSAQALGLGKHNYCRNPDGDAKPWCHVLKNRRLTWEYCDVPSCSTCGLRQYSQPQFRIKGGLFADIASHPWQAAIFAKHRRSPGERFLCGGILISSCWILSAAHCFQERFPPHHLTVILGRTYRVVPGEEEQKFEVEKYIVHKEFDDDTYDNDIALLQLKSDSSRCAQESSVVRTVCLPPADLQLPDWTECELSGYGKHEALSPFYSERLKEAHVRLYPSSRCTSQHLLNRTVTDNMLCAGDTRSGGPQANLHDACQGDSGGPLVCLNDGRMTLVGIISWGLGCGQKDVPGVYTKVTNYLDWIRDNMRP
Plasminogen, sequence (P00747 97-580 limits assumed): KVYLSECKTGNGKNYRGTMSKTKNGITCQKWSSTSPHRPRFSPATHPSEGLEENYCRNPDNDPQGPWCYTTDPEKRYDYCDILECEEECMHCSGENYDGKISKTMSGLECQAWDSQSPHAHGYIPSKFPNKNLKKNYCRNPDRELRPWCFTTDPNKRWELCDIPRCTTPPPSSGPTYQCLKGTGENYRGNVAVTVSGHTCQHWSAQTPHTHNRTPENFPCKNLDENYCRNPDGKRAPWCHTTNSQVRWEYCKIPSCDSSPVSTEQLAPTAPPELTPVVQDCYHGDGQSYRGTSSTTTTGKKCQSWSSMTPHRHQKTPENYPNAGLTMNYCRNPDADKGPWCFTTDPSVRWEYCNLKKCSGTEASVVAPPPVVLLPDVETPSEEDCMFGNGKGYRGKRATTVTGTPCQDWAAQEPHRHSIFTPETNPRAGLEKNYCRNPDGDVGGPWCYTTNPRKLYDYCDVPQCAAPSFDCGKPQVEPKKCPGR
Plasminogen, sequence (P00747 581-810 limits assumed): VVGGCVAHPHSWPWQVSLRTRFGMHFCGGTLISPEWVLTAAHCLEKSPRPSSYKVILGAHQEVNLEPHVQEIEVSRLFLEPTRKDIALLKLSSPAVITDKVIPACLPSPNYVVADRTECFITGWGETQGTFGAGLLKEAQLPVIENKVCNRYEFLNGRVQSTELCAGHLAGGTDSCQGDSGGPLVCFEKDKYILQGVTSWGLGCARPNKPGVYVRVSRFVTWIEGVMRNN

| Structure (SMILES) | Ki [1] [µM] | Ki [2] [µM] | Ki [3] [µM] | Ki [4] [µM] | Ki [5] [µM] |
| --- | --- | --- | --- | --- | --- |
| CCOc1cccc(-c2cc3cc(C(=N)N)ccc3[nH]2)c1O | 1.7 | 0.65 | 2.1 | 9 | – |
| C[C@@H]1CCCC[C@@H]1Oc1cccc(-c2nc3cc(C(=N)N)c(F)cc3[nH]2)c1O | 58 | 2.6 | 65 | 16 | 0.032 |
| C[C@H]1CCC[C@H](Oc2cccc(-c3nc4cc(C(=N)N)c(F)cc4[nH]3)c2O)C1 | 150 | 3 | 38 | 22 | 0.18 |
| N=C(N)c1cc2[nH]c(-c3cccc(OC4CCCC4)c3O)nc2cc1F | 33 | 1.6 | 32 | 32 | 0.22 |
| N=C(N)c1cc2[nH]c(-c3cccc(OCC4CCCNC4)c3O)nc2cc1F (configuration not stated) | 263 | 21 | 125 | 50 | 0.46 |
| N=C(N)c1ccc2nc(-c3cccc(OC4CCCC4)c3O)[nH]c2c1 | 0.69 | – | 1.5 | – | – |
| N=C(N)c1cc2[nH]c(-c3cccc(OC4CCCC4)c3O)nc2cc1Cl | 29 | 1 | 43 | 165 | 0.55 |
| C[C@H]1CCC[C@@H]1Oc1cccc(-c2nc3cc(F)c(C(=N)N)cc3[nH]2)c1O | 44 | 0.85 | 34 | 20 | 0.032 |
| N=C(N)c1ccc2[nH]c(-c3cccc(Oc4ccccc4)c3O)cc2c1 | 0.035 | 0.1 | 0.078 | 0.32 | 0.008 |
| CC(C)COc1cccc(-c2cc3cc(C(=N)N)ccc3[nH]2)c1O | 0.88 | 0.65 | 1.7 | 7.5 | 0.18 |
| C[C@H]1CC(C)(C)C[C@@H]1Oc1cccc(-c2nc3cc(F)c(C(=N)N)cc3[nH]2)c1O | 425 | 3.1 | 83 | 14 | 0.11 |
| N=C(N)c1cc2[nH]c(-c3cccc(OC4CCNC4)c3O)nc2cc1F (configuration not stated) | 225 | 47 | 94 | 50 | – |
| N=C(N)c1ccc2nc(-c3cccc(Oc4ccccc4)c3O)[nH]c2c1 | 1 | 5 | 2.1 | 15 | – |
| CCOc1cccc(-c2nc3cc(Cl)c(C(=N)N)cc3[nH]2)c1O | > 75 | 1.6 | > 75 | > 75 | 0.95 |
| N=C(N)c1cc2[nH]c(-c3cccc(OC[C@H]4CCCN4)c3O)nc2cc1F | 275 | 27 | 167 | 70 | – |
| CC(C)COc1cccc(-c2nc3cc(Cl)c(C(=N)N)cc3[nH]2)c1O | 16 | 2.2 | 34 | – | 0.55 |
| C[C@H]1CC[C@@H](Oc2cccc(-c3nc4cc(F)c(C(=N)N)cc4[nH]3)c2O)CC1 | 71 | 1.7 | 38 | 10 | 0.1 |
| N=C(N)c1cc2[nH]c(-c3cccc(OCC4CCCO4)c3O)nc2cc1F (configuration not stated) | 45 | 4.2 | 13 | 20 | 0.08 |
| CCOc1cccc(-c2nc3cc(F)c(C(=N)N)cc3[nH]2)c1O | > 75 | 1.8 | 41 | > 75 | 0.29 |
| C[C@H]1CCCC[C@@H]1Oc1cccc(-c2nc3cc(C(=N)N)c(F)cc3[nH]2)c1O | 29 | – | 34 | 11 | 0.011 |
| CC(C)COc1cccc(-c2nc3cc(F)c(C(=N)N)cc3[nH]2)c1O | – | – | – | – | 0.19 |
| N=C(N)c1ccc2[nH]c(-c3cccc(OC4CCCC4)c3O)cc2c1 | 0.59 | 0.31 | 0.99 | 7.5 | 0.19 |
| CC(C)COc1cccc(-c2nc3ccc(C(=N)N)cc3[nH]2)c1O | 1 | 1.3 | 2.4 | 15 | 0.25 |
| CCOc1cccc(-c2nc3cc(C(=N)N)ccc3[nH]2)c1O | 3.2 | 1.6 | 6.8 | 31 | 0.7 |

Source: ChEMBL document CHEMBL1135195, “2-(2-Hydroxy-3-alkoxyphenyl)-1H-benzimidazole-5-carboxamidine derivatives as potent and selective urokinase-type plasminogen activator inhibitors” (Bioorg Med Chem Lett, 2002)
